# Like-named read-outs stand apart in the source and are kept apart here. Residues, ends and D or L forms follow the SMILES beside them.
# What was measured:
# Assay type in all cases: biochemical
# caspase 7 = molecular target: T1, caspase 7 (Homo sapiens, UniProt P55210); experiment: Enzyme inhibition assay, caspase 7 (fluorogenic Ac-DEVD-AMC)
# T1 construct: purchased Sigma-Aldrich (St. Louis, Mo.)
# T1 sequence (P55210 24-198 limits assumed): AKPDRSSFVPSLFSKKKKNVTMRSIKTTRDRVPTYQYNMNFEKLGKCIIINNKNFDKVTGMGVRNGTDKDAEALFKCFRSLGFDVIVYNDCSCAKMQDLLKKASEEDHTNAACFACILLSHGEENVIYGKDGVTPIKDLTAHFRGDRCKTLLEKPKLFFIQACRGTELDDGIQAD
# T1 sequence (P55210 207-303 limits assumed): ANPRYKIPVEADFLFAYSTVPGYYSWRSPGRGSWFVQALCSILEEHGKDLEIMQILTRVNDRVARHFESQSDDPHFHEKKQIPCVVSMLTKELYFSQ
# Experimental: (§1) Enzyme Assays. Inhibition of recombinant human caspase-3 and other caspases by the isatin analogues was assessed using a fluorometric assay by measuring the accumulation of a fluorogenic product, 7-amino-4-methylcoumarin (7-AMC).
# (§2) Enzyme Inhibition Assays. Recombinant human caspases (3, 6, 7, and 8) and their peptide-specific substrates (Ac-DEVDAMC, Ac-VEID-AMC, Ac-DEVD-AMC, and Ac-IETD-AMC, respectively) were purchased from Sigma-Aldrich (St. Louis, Mo.) with the exception of caspase 1 and its substrate (Ac-YVAD-AMC), which were obtained from BIOMOL Research Laboratories (Plymouth Meeting, Pa.). The enzymatic activity of caspases was determined by measuring the accumulation of the fluorogenic product 7-amino-4-methylcoumarin (AMC). All assays were prepared in 96-well format at a volume of 210 μL per well and consisted of 100 mM Na+ HEPES (pH 7.4), 10% sucrose, 100 mM NaCl, 0.1% CHAPS, 5 mM 2-mercaptoethanol, 2 mM EDTA, 10 μM Ac-YVAD-AMC (caspase 1); 20 mMNa^+ HEPES (pH 7.4), 10% sucrose, 100 mMNaCl, 0.1% CHAPS, 2 mM EDTA, 10 μM Ac-DEVD-AMC (caspase 3); 20 mM Na^+ HEPES (pH 7.4), 10% sucrose, 100 mM NaCl, 0.1% CHAPS, 2 mM EDTA, 10 μM Ac-VEID-AMC (caspase 6); 20 mM Na+ HEPES (pH 7.4), 100 mM NaCl, 10% sucrose, 0.1% CHAPS, 5 mM 2-mercaptoethanol, 2 mM EDTA, 10 μM Ac-DEVD-AMC (caspase 7); 20 mM Na+ HEPES (pH 7.4), 10% sucrose, 100 mM NaCl, 0.1% CHAPS, 2 mM EDTA, 10 μM Ac-IETD-AMC (caspase 8).
# (§3) Recombinant caspases were first assayed to determine the optimal concentration for each experiment. Optimal concentrations were based in the linear range of the enzyme activation curves. Peptide inhibitors with known IC50 values were tested together with the compounds as a control for each caspase assay. […] Peptide and nonpeptide inhibitors were dissolved in DMSO, and a 2 serial dilution was performed prior to screening in order to obtain desired concentrations. 10 μL was added to each well containing 100 μL caspase solution and allowed to incubate on ice for 30 min. […] The final concentration of DMSO in all wells was 5% of the total volume. In caspase-1 and caspase-7 assays, 10 mM 2-mercaptoethanol was added to the substrate solution for full activation of the enzymes.
# (§4) Compounds were tested in duplicate, and IC50 curves were calculated for all inhibitors assayed. Final IC50s were the average of three independent experiments.
# caspase 8 = molecular target: T2, caspase 8 (Homo sapiens, UniProt Q14790); experiment: Enzyme inhibition assay, caspase 8 (fluorogenic Ac-IETD-AMC)
# T2 construct: purchased Sigma-Aldrich (St. Louis, Mo.)
# Experimental: as §1, §2, §3, §4
# caspase 1 = molecular target: T3, caspase 1 (Homo sapiens, UniProt P29466); experiment: Enzyme inhibition assay, caspase 1 (fluorogenic Ac-YVAD-AMC)
# T3 construct: purchased BIOMOL Research Laboratories (Plymouth Meeting, Pa.)
# T3 sequence (P29466 120-297 limits assumed): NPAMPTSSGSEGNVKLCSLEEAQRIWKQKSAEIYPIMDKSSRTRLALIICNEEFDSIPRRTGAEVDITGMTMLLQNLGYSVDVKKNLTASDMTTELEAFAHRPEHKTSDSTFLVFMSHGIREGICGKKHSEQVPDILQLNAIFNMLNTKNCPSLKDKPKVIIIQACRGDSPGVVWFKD
# T3 sequence (P29466 317-404 limits assumed): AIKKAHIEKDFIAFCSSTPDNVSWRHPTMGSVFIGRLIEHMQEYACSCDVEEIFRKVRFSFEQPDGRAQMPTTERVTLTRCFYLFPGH
# caspase-3 = molecular target: T4, caspase-3 (Homo sapiens, UniProt P42574); experiment: Enzyme inhibition assay, caspase 3 (fluorogenic Ac-DEVD-AMC)
# T4 construct: purchased Sigma-Aldrich (St. Louis, Mo.)
# T4 sequence (P42574 29-175 limits assumed): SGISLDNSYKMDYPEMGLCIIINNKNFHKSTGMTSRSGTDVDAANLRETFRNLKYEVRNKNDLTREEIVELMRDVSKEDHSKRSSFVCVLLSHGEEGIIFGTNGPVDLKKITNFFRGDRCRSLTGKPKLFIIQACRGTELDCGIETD
# T4 sequence (P42574 176-277 limits assumed): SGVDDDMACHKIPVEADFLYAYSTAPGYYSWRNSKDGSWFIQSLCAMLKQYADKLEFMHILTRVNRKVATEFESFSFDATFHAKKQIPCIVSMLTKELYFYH
# Experimental: as §1, §2, §3, §4
# caspase 6 = molecular target: T5, caspase 6 (Homo sapiens, UniProt P55212); experiment: Enzyme inhibition assay, caspase 6 (fluorogenic Ac-VEID-AMC)
# T5 construct: purchased Sigma-Aldrich (St. Louis, Mo.)
# T5 sequence (P55212 24-179 limits assumed): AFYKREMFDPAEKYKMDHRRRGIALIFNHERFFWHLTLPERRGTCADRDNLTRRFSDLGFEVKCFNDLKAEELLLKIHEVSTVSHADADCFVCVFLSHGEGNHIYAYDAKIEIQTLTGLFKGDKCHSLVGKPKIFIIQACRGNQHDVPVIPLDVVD
# T5 sequence (P55212 194-293 limits assumed): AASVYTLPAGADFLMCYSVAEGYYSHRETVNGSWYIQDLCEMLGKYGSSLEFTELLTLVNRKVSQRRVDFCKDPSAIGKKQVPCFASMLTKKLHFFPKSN
# Experimental: as §1, §2, §3, §4
# [1] = Table 1, read-out: IC50 (nM) Caspase 8
# [2] = Table 1, read-out: IC50 (nM) Caspase 1
# [3] = Table 4, read-out: IC50 (nM) caspase-3
# [4] = Table 4, read-out: IC50 (nM) caspase-7
# [5] = Table 6, read-out: IC50 (nM) caspase-1
# [6] = Table 6, read-out: IC50 (nM) caspase-3
# [7] = Table 6, read-out: IC50 (nM) caspase-6
# [8] = Table 6, read-out: IC50 (nM) caspase-7
# T2 sequence (Q14790 217-374 limits assumed): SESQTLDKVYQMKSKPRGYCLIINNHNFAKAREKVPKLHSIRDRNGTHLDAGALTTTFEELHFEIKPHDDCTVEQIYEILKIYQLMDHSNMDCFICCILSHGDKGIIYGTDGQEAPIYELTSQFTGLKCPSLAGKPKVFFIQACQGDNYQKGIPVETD
# T2 sequence (Q14790 385-479 limits assumed): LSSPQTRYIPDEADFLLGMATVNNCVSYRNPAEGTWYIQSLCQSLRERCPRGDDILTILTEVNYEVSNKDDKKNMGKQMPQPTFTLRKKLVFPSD
smiles,measurement,setting,value
"CC(=O)N[C@@H](CC(=O)O)C(=O)N[C@@H](CCC(=O)O)C(=O)N[C@H](C(=O)N[C@H](C=O)CC(=O)O)C(C)C [Ac-DEVD-CHO, reference compound]",IC50,"caspase 7; Table 1, read-out: IC50 (nM) Caspase 7",8.5 ± 1 nM
same,IC50,"caspase 7; Table 2, read-out: IC50 (nM) Caspase 7",8 ± 1 nM
"CC[C@H](C)[C@H](NC(C)=O)C(=O)N[C@@H](CCC(=O)O)C(=O)N[C@H](C(=O)N[C@H](C=O)CC(=O)O)[C@@H](C)O [Ac-IETD-CHO, reference compound] (Ac-IETD-aldehyde)",IC50,caspase 8; [1],4.7 ± 0.9 nM
same,IC50,"caspase 8; Table 2, read-out: IC50 (nM) Caspase 8",4 ± 0.1 nM
"CC(=O)N[C@@H](Cc1ccc(O)cc1)C(=O)N[C@H](C(=O)N[C@@H](C)C(=O)N[C@H](C=O)CC(=O)O)C(C)C [Ac-YVAD-CHO, reference compound]",IC50,caspase 1; [2],8.1 ± 2.1 nM
same,IC50,"caspase 1; Table 2, read-out: IC50 (nM) Caspase 1",8.1 ± 2.1 nM
"O=C1Nc2ccc(S(=O)(=O)N3CCC[C@H]3COc3ccccc3)cc2C1=O [Compound 10, (S)-5-(2-Phenoxymethyl-pyrrolidine-1-sulfonyl)-1H-indole-2,3-dione]",IC50,caspase-3; [3],240 ± 10 nM
same,IC50,caspase 7; [4],540 ± 56.6 nM
"O=C1C(=O)N(Cc2ccc(O)cc2)c2ccc(S(=O)(=O)N3CCC[C@H]3COc3ccccc3)cc21 [Compound 11f, (S)-1-(4-Hydroxybenzyl)-5-(2-phenoxymethyl-pyrrolidine-1-sulfonyl)-1H-indole-2,3-dione]",IC50,caspase-3; [3],13.5 ± 2.4 nM
same,IC50,caspase 7; [4],44 ± 0.1 nM
"O=C1C(=O)N(Cc2ccc(F)nc2)c2ccc(S(=O)(=O)N3CCC[C@H]3COc3ccccc3)cc21 [Compound 11g, (S)-1-(6-Fluoropyridin-3-yl-methyl)-5-(2-phenoxymethylpyrrolidine-1-sulfonyl)-1H-indole-2,3-dione]",IC50,caspase-3; [3],10.3 ± 1.5 nM
same,IC50,caspase 7; [4],14.5 ± 0.9 nM
"O=C1Nc2ccc(S(=O)(=O)N3CCCC3COc3cccnc3)cc2C1=O (stereo not drawn) [Compound 20, 5-(2-(Pyridin-3-yl-oxymethyl)-pyrrolidine-1-sulfonyl)-1H-indole-2,3-dione]",IC50,caspase 1; [5],> 5000 nM
same,IC50,caspase-3; [6],58.3 ± 7.6 nM
same,IC50,caspase 6; [7],> 5000 nM
same,IC50,caspase 7; [8],215 ± 49.5 nM
same,IC50,caspase 8,> 50000 nM
"CN1C(=O)C(=O)c2cc(S(=O)(=O)N3CCCC3COc3cccnc3)ccc21 (stereo not drawn) [Compound 21a, 1-Methyl-5-(2-(pyridin-3-yl-oxymethyl)-pyrrolidine-1-sulfonyl)-1H-indole-2,3-dione]",IC50,caspase 1; [5],> 10000 nM
same,IC50,"caspase-3; IC50 (nM) caspase-3, Table 6",23.3 ± 3.1 nM
same,IC50,caspase 6; [7],> 5000 nM
same,IC50,caspase 7; [8],94.9 ± 21.6 nM
same,IC50,caspase 8,> 50000 nM
"O=C1C(=O)N(Cc2ccccc2)c2ccc(S(=O)(=O)N3CCCC3COc3cccnc3)cc21 (stereo not drawn) [Compound 21b, 1-Benzyl-5-(2-(pyridin-3-yl-oxymethyl)-pyrrolidine-1-sulfonyl)-1H-indole-2,3-dione]",IC50,caspase 1; [5],> 10000 nM
same,IC50,caspase-3; [6],5.2 ± 1.6 nM
same,IC50,caspase 6; [7],> 5000 nM
same,IC50,caspase 7; [8],14.1 ± 3.4 nM
same,IC50,"caspase 8; Table 6, read-out: IC50 (nM) caspase-8",> 50000 nM
"O=C1C(=O)N(Cc2ccc(Br)cc2)c2ccc(S(=O)(=O)N3CCCC3COc3cccnc3)cc21 (stereo not drawn) [Compound 28c, 1-(4-Bromo-benzyl)-5-[2-(pyridin-3-yl-oxymethyl)-pyrrolidine-1-sulfonyl]-1H-indole-2,3-dione]",IC50,caspase 1; [2],> 15000 nM
same,IC50,"caspase 1; Table 7, read-out: IC50 (nM) Casp-1",> 15000 nM
same,IC50,"caspase-3; IC50 (nM) Casp-3, Table 7",3.6 ± 0.5 nM
same,IC50,"caspase-3; IC50 (nM) Caspase 3, Table 1",3.6 ± 0.5 nM
same,IC50,"caspase 7; IC50 (nM) Casp-7, Table 7",6.6 ± 0.1 nM
same,IC50,"caspase 7; IC50 (nM) Caspase 7, Table 1",6.6 ± 0.1 nM
same,IC50,caspase 8; [1],> 50000 nM
same,IC50,"caspase 8; Table 7, read-out: IC50 (nM) Casp-8",> 50000 nM
O=C1Nc2ccc(S(=O)(=O)N3CCC[C@H]3COc3ccccc3)cc2C1=NO [WC(II)-51],potency as caspase-3/7 inhibitors (in words),caspase-3,low potency
"O=C1C(=O)N(Cc2ccc(OCCF)cc2)c2ccc(S(=O)(=O)N3CCCC3COc3ccccc3)cc21 (stereo not drawn) [WC-II-89, 1-[4-(2-Fluoroethoxy)-benzyl]-5-(2-phenoxymethyl-pyrrolidine-1-sulfonyl)-1H-indole-2,3-dione]",IC50,caspase 1; [2],> 15000 nM
same,IC50,"caspase-3; Table 1, read-out: IC50 (nM) Caspase 3",9.7 ± 1.3 nM
same,IC50,"caspase 6; Table 1, read-out: IC50 (nM) Caspase 6",3720 nM
same,IC50,caspase 8; [1],> 50000 nM
COc1ccc(CN2C(=O)C(=CC#N)c3cc(S(=O)(=O)N4CCC[C@H]4COc4ccccc4)ccc32)cc1 [WC-II-99],IC50,"caspase-3; Table 2, read-out: IC50 (nM) Caspase 3",> 1000 nM
same,potency as caspase-3/7 inhibitors (in words),caspase-3,low potency

# Reference: patent publication US8329686B2, “Isatin analogues and uses therefor” (Washington University, priority 2006, dated 2012)
